Source: patent publication US11385223B2, “Anastasis biosensor” (THE JOHNS HOPKINS UNIVERSITY, priority 2012, dated 2022)
Numbered stars: 1 amine (or outer) side, 2 acyl side, 3 side chain; on linkers, the order of the positions; unused ones are H or OH. Bridge positions count the residues as written; N and C are the ends. Square brackets hold non-standard residues; d marks the D form. Peptide text beside a SMILES is read from it. I, II: the chains in the order shown. Actinocin(9to1) = Cc1c2oc3c(C)ccc(C(=O)[*:1])c3nc-2c(C(=O)[*:2])c(N)c1=O; NMeV = CN[C@H](C(=O)O)C(C)C; Sar = CNCC(=O)O

Key:
NIH 3T3 cells = experiment: Apoptosis induction and its reversal in NIH 3T3 cells (morphology, caspase-3 Western blot); assay type: cell-based
[1] = test system: Mustela putoris furo (Mpf) brain cells; experiment: Apoptosis induction and its reversal in Mpf brain cells (morphology, annexin V-FITC); assay type: cell-based, ferret
[2] = test system: primary mouse liver cells
HeLa cells = experiment: Apoptosis induction and its reversal in HeLa cells expressing caspase biosensor NES-DEVD-YFP-NLS
[3] = test system: primary mouse macrophages; experiment: Apoptosis induction and its reversal in primary macrophages (morphology); assay type: cell-based
[4] = test system: liver cells and NIH 3T3 cells; experiment: Transient actinomycin D exposure after removal of apoptotic inducers (caspase-3 Western blot, trypan blue exclusion); assay type: cell-based
Protocol: FIG. 14A-14F: Critical contributing factors in reversal of apoptosis. (FIG. 14A) RNA blot for detecting new RNA synthesis in untreated vs. treated and washed (Washed) liver cells 1 h after a 5-h exposure to 4.5% ethanol and with and without transient exposure (1 h, 1 μg/ml) to actinomycin D (AMD). No s4U served as negative control for the probe binding to RNA. (FIG. 14B) Western blot analysis of the cleavage of caspase-3 (Casp-3) on the total lysate of untreated, treated (5-h exposure to 4.5% ethanol for liver cells, 20-h exposure to 10% DMSO for NIH 3T3 cells), and washed liver cells and NIH 3T3 cells with and without transient exposure to actinomycin D (AMD) immediately after removal of apoptotic stimuli. The AMD-exposed cells were cultured in fresh medium for 23 h and then subjected to the analysis. c, cleaved form. […] The AMD exposed-cells were cultured in fresh medium for 23 h and then subjected to the assay. ns, p>0.05; *p<0.05; n=3 independent experiments. Error bars denote SD. (FIG. 14D) A time-course microarray study in liver cells, log 2-fold change of gene expression comparison between ethanol-induced apoptotic cells (RO), untreated cells (Ctrl), and induced cells that were then washed and further cultured in fresh medium for 3 (R3), 6 (R6), 24 (R24), and 48 h (R48). The log 2 signal values from three biological replicates were averaged (geometric mean) for each time point. […] The corresponding cells were exposed to the inhibitors after apoptotic stimuli had been removed from the treated cells and then further cultured for 24 h. ns, p>0.05; *P<0.05; n=3 independent experiments. Error bars denote SD. (FIG. 14F) Proposed model for reversal of apoptosis. Expression of multiple prosurvival factors and new transcripts during reversal of apoptosis promotes cell survival by suppressing the activated apoptotic pathways and repairing the cells.
To gain insight into the mechanism by which cells reverse apoptosis and survive, we first tested whether new transcription is required. […]

[5] = 4.3% ethanol 5 h, washed, cultured 2 h
[6] = transient exposure (1 h, 1 μg/ml) immediately after removal of apoptotic stimuli, then 23 h fresh medium

Question: How did the “cells that reversed all signs of apoptosis after removal of the inducer” value (NIH 3T3 cells; 10% DMSO 20 h, then washed, 24 h) turn out when `C[S+](C)[O-]` [DMSO, dimethyl sulfoxide] was run?
Answer: Its value is over 90%.

Question: And the “NIH 3T3 cells exhibiting multiple hallmarks of apoptosis” value (NIH 3T3 cells; 10% DMSO for 20 h)?
Answer: The value was over 90%.

Question: What about the “caspase-3 cleavage (Western blot)” value (NIH 3T3 cells; NIH 3T3 cells induced with DMSO) of the same molecule?
Answer: The value was “increase in cleaved caspase-3”.

Question: `C/C1=C\[C@H](C)C[C@H](C)OC(=O)C[C@H](c2ccc(O)cc2)NC(=O)[C@@H](Cc2c(Br)[nH]c3ccccc23)N(C)C(=O)[C@H](C)NC(=O)[C@@H](C)C1` [jasplakinolide] was tested. Which “cells that recovered morphology after removal of the inducer” value (from here on “cells that recovered morphology”) ([1]; 2 μM jasplakinolide 50 h, then removal of inducer for 24 h) did it give?
Answer: Its value is about 90%.

Question: What about the “cells labeled with annexin V-FITC” value ([1]; 2 μM jasplakinolide 50 h, annexin V-FITC applied ten minutes before washing) of the same molecule?
Answer: The value was “Greater than 90%”.

Question: What about the “cells displaying morphological hallmarks of apoptosis (nuclear condensation, mitochondrial fragmentation, cell shrinkage)” value (from here on “cells displaying morphological hallmarks”) ([1]; 2 μM jasplakinolide for 50 h) of the same molecule?
Answer: The value was “Greater than 90%”.

Question: How did the “cells that reversed all signs of apoptosis after removal of the inducer” value ([2]; 4.5% ethanol 5 h, then washed, 24 h) turn out when `CCO` [ethanol] was run?
Answer: Its value is over 90%.

Question: And the “morphological hallmarks of apoptosis (cell shrinkage, plasma membrane blebbing, nuclear condensation, altered mitochondrial morphology)” value ([2]; 4.5% ethanol for 2.5 h, time-lapse live-cell microscopy)?
Answer: Its value is “displayed morphological hallmarks of apoptosis”.

Question: What about the “liver cells that shrank and displayed morphological hallmarks of apoptosis” value ([2]; 4.5% ethanol for 5 h) of the same molecule?
Answer: Its value is over 80%.

Question: What about the “caspase-3 cleavage (Western blot)” value ([2]; liver cells induced with ethanol) of the same molecule?
Answer: The value was “increase in cleaved caspase-3”.

Question: What about the “cells that recovered morphology” value (primary rat heart cells; 4.5% ethanol 5 h, then removal of inducer for 24 h) of the same molecule?
Answer: Its value is about 90%.

Question: What about the “cells labeled with annexin V-FITC” value (primary rat heart cells; 4.5% ethanol 5 h, annexin V-FITC applied ten minutes before washing) of the same molecule?
Answer: The value was “Greater than 90%”.

Question: And the “cells displaying morphological hallmarks” value (primary rat heart cells; 4.5% ethanol for 5 h)?
Answer: The value was “Greater than 90%”.

Question: What about the “cells that recovered normal morphology after removal of the inducer” value (HeLa cells; [5]) of the same molecule?
Answer: The value was over 90%.

Question: And the “recovered cells that retained nuclear YFP” value (HeLa cells; [5])?
Answer: The value was 32%.

Question: And the “cells exhibiting morphological hallmarks of apoptosis (nuclear condensation, membrane blebbing, cell shrinkage)” value (HeLa cells; 4.3% ethanol for 3 h)?
Answer: Its value is “vast majority”.

Question: What about the “time to regain normal morphology after removal of the apoptotic inducer” value (HeLa cells; 4.3% ethanol, then washed) of the same molecule?
Answer: Its value is at most 2 h.

Question: And the “formation of micronuclei after reversal of apoptosis” value (HeLa cells; after reversal of ethanol-induced apoptosis, cytokinesis-block micronucleus assay)?
Answer: Its value is “Increased in formation of micronuclei”.

Question: For `CC(C)(O)/C=C/C(=O)[C@](C)(O)[C@H]1[C@H](O)C[C@@]2(C)[C@@H]3CC=C4[C@@H](C=C(O)C(=O)C4(C)C)[C@]3(C)C(=O)C[C@]12C` [cucurbitacin I], which “cells that recovered morphology” value ([3]; 1 μM cucurbitacin I 24 h, then removal of inducer for 24 h) is on record?
Answer: The value was about 90%.

Question: And the “cells displaying morphological hallmarks” value ([3]; 1 μM cucurbitacin I for 24 h)?
Answer: The value was “Greater than 90%”.

Question: What does the source list for `Cc1c2oc3c(C)ccc(C(=O)N[C@@H]4C(=O)N[C@H](C(C)C)C(=O)N5CCC[C@H]5C(=O)N(C)CC(=O)N(C)[C@@H](C(C)C)C(=O)O[C@@H]4C)c3nc-2c(C(=O)N[C@@H]2C(=O)N[C@H](C(C)C)C(=O)N3CCC[C@H]3C(=O)N(C)CC(=O)N(C)[C@@H](C(C)C)C(=O)O[C@@H]2C)c(N)c1=O` [actinomycin D] (I: T[dV]P[Sar][NMeV] / II: T[dV]P[Sar][NMeV]; ester I:1-I:C, II:1-II:C; linker I:N-II:N via Actinocin(9to1))?
Answer: cell death in control cells not treated with apoptotic inducers ([4]; same concentration of actinomycin D): did not cause significant cell death; caspase-3 cleavage (Western blot) after removal of apoptotic inducers [4, 6]: persistence of cleaved caspase-3; cell death by trypan blue staining after removal of apoptotic inducers [4, 6]: irreversible cell death
